Read-outs that look alike come from different tables or passages of the source. Numbered stars: 1 amine (or outer) side, 2 acyl side, 3 side chain; on linkers, the order of the positions; unused ones are H or OH. Bridge positions count the residues as written; N and C are the ends. Side chains are listed from the residue outwards. Peptide text beside a SMILES is read from it. * marks the point of attachment. C20 diacid = O=C(O)CCCCCCCCCCCCCCCCCCC(=O)*; γGlu = O=C(O)[C@H](CCC(=O)[*:2])N[*:1]; AEEA = NCCOCCOCC(=O)O
What was measured:
[1] = biological target: T1, rat amylin receptor (rat calcitonin receptor + rat RAMP 3) (Rattus norvegicus, UniProt P32214+Q9JJ73); test: ASSAY (VI) binding to the rat amylin receptor; settings: Table 7; for Ratio rCT/rAmylin binding: rat binding selectivity, rCTR IC50 / rAmylin-R IC50
T1 construct: expressed in transfected cells; host or cells: BHK tk'ts 13 (transient, FuGENE 6), membranes
T1 sequence (P32214 25-479 isoform P32214-2 limits assumed): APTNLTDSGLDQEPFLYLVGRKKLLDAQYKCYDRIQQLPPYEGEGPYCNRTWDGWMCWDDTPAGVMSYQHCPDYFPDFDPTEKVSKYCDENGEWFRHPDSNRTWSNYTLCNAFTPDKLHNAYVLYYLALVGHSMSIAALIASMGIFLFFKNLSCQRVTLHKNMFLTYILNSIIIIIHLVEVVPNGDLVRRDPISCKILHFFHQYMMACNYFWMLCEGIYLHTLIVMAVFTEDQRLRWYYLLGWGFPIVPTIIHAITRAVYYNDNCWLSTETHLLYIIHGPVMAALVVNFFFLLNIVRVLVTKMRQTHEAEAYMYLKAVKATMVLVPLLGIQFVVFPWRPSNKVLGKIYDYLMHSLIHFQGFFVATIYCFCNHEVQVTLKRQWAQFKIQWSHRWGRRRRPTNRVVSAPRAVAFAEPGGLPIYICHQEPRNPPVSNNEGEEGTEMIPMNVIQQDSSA
T1 sequence (Q9JJ73 23-147 partner): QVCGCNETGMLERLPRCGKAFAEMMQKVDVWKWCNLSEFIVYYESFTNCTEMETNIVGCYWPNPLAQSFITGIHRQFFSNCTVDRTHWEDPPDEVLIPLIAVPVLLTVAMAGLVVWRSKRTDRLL
In short: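 The cell-membrane assay assessed binding at the rat amylin receptor. BHK tk′ts 13 cells were transfected transiently with rat calcitonin receptor, with FuGENE® 6 (Roche) as the transfection reagent, used per the manufacturer's recommendations. Approximately 48 hours after transfection the cells were harvested, and membranes were prepared for measuring binding.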

[2] = biological target: T2, human amylin receptor (membranes from Amylin 3(a)/CRE-luc cells) (Homo sapiens, UniProt O60896+P30988); test: ASSAY (V) binding to the human amylin receptor (SPA, 125I-rat amylin); settings: for IC50: Table 4, read-out: hAmylin-R bind IC50;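 as to all read-outs here: competition binding of cell membranes (35 ng/µL) mixed with SPA beads in 384-well plates at 40 µL total volume, read by scintillation counting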
T2 construct: expressed in transfected cells
T2 sequence (P30988 25-474): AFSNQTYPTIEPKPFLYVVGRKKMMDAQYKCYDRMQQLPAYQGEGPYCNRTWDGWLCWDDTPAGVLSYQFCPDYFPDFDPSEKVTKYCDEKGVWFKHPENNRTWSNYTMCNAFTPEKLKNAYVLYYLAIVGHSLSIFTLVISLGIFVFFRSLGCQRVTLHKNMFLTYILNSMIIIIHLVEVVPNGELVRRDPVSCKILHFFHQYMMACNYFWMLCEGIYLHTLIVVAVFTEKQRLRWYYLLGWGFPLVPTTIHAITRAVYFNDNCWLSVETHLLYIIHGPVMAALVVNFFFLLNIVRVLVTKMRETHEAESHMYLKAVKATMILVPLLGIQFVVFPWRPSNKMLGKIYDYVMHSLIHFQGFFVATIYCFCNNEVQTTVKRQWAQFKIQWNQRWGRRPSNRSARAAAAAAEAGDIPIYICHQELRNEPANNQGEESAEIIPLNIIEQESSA
T2 sequence (O60896 24-148 partner): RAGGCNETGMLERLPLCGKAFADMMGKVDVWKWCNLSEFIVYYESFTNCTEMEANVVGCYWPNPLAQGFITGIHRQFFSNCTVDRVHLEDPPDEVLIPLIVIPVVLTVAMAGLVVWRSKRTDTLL

[3] = biological target: T3, human amylin 3(a) receptor (human calcitonin receptor + RAMP-3) in BHK570 cells (Homo sapiens, UniProt O60896+P30988); test: ASSAY (II)a functional assay, human amylin receptor (CRE luciferase); format: cell-based; settings: for EC50: human amylin receptor functional potency, assay (II), read-out: hAmylin-R funct. EC50
T3 construct: expressed in transfected cells
In short: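 Functional agonism was measured by CRE-luciferase reporter luminescence in BHK cells bearing calcitonin receptor, or calcitonin receptor plus RAMP-3 as the amylin 3(a) receptor. Stimulation lasted 3 hours at 37° C.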

[4] = ASSAY (IV) determination of solubility; format: physicochemical
In short: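 Samples of polypeptide, prepared from a water stock at […] and diluted 1:1 into 100 mM buffers spanning pH 3.0 to 8.0, stood 18 hours at room temperature. Polypeptide concentration was then determined by UPLC following centrifugation.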

[5] = Table 5, selectivity, hCTR bind IC50 / hAmylin-R bind IC50
[6] = Table 7, human binding selectivity, included for comparison
[7] = hCTR funct. EC50 / hAmylin-R funct. EC50
[8] = hCTR funct. EC50 divided by hAmylin-R funct. EC50
[9] = hCTR funct. EC50 over hAmylin-R funct. EC50
[10] = human functional selectivity: hCTR funct. EC50 / hAmylin-R funct. EC50
[11] = bistrispropane buffer, pH 6.5, read-out: Solubility pH 6.5 Concentration
[12] = bistrispropane buffer, pH 7.5, read-out: Solubility pH 7.5 Concentration
[13] = bistrispropane buffer, pH 6.0, read-out: Solubility pH 6.0 Concentration
[14] = bistrispropane buffer, pH 7.0, read-out: Solubility pH 7.0 Concentration
[15] = bistrispropane buffer, pH 8.0, read-out: Solubility pH 8.0 Concentration
[16] = glycylglycine buffer, pH 3.0, read-out: Solubility pH 3.0 Concentration
[17] = glycylglycine buffer, pH 4.0, read-out: Solubility pH 4.0 Concentration
[18] = glycylglycine buffer, pH 5.0, read-out: Solubility pH 5.0 Concentration

Row | Compound | IC50 ([1]; binding to rat amylin receptor, read-out: rAmylin-R bind IC50) | Ratio rCT/rAmylin binding [1] | IC50 [2] | Ratio hCT/hAmylin binding [2, 5] | Ratio hCT/hAmylin binding [2, 6] | Ratio hCT/hAmylin funct. [3, 7] | Ratio hCT/hAmylin funct. [3, 8] | Ratio hCT/hAmylin funct. [3, 9] | EC50 [3] | Ratio hCT/hAmylin funct. [3, 10] | solubility at 18 h [4, 11] | solubility at 18 h [4, 12] | solubility at 18 h [4, 13] | solubility at 18 h [4, 14] | solubility at 18 h [4, 15] | solubility at 18 h [4, 16] | solubility at 18 h [4, 17] | solubility at 18 h [4, 18]
1 | CC[C@H](C)[C@H](NC(=O)[C@H](C)NC(=O)CNC(=O)[C@H](Cc1ccccc1)NC(=O)[C@H](CC(N)=O)NC(=O)[C@@H]1CCCN1C(=O)[C@H](CO)NC(=O)[C@H](CO)NC(=O)[C@H](Cc1c[nH]cn1)NC(=O)[C@H](CCCNC(=N)N)NC(=O)[C@H](CC(C)C)NC(=O)[C@H](Cc1ccccc1)NC(=O)[C@H](Cc1c[nH]cn1)NC(=O)[C@H](C)NC(=O)[C@H](CC(C)C)NC(=O)[C@H](CCCNC(=N)N)NC(=O)[C@H](CCC(N)=O)NC(=O)[C@@H](NC(=O)[C@H](C)NC(=O)[C@@H]1CSSC[C@H](NC(=O)[C@@H](N)CCCCNC(=O)CC[C@H](NC(=O)CCCCCCCCCCCCCCCCCCC(=O)O)C(=O)O)C(=O)N[C@@H](CC(N)=O)C(=O)N[C@@H]([C@@H](C)O)C(=O)N[C@@H](C)C(=O)N[C@@H]([C@@H](C)O)C(=O)N1)[C@@H](C)O)C(=O)N1CCC[C@H]1C(=O)N[C@@H](CO)C(=O)N[C@@H](CO)C(=O)N[C@H](C(=O)N[C@@H](CC(N)=O)C(=O)N[C@H](C(=O)NCC(=O)N1CCC[C@H]1C(=O)N[C@@H](CC(N)=O)C(=O)N[C@H](C(=O)N1CCC[C@H]1C(N)=O)[C@@H](C)O)C(C)C)[C@@H](C)O [Example 115] (H-K([γGlu-C20 diacid])CNTATCATQRLAHFLRHSSPNFGAIPSSTNVGPNTP-NH2; disulfide 2-7 (inferred); N-terminus assumed) | 0.125 nM | 3.0 | 0.131 nM | 1.2 | 1.2 | 0.8 | 0.8 | 0.8 | 0.052 nM | 0.8 | ≥ 200 µM | ≥ 200 µM | ≥ 200 µM | ≥ 200 µM | ≥ 200 µM | ≥ 200 µM | ≥ 200 µM | ≥ 200 µM
2 | CC[C@H](C)[C@H](NC(=O)[C@H](C)NC(=O)CNC(=O)[C@H](Cc1ccccc1)NC(=O)[C@H](CC(N)=O)NC(=O)[C@@H]1CCCN1C(=O)[C@H](CO)NC(=O)[C@H](CO)NC(=O)[C@H](Cc1c[nH]cn1)NC(=O)[C@H](CCCNC(=N)N)NC(=O)[C@H](CC(C)C)NC(=O)[C@H](Cc1ccccc1)NC(=O)[C@H](CCC(=O)O)NC(=O)[C@H](C)NC(=O)[C@H](CC(C)C)NC(=O)[C@H](CCCNC(=N)N)NC(=O)[C@H](CCC(N)=O)NC(=O)[C@@H](NC(=O)[C@H](C)NC(=O)[C@@H]1CSSC[C@H](NC(=O)[C@@H](N)CCCCNC(=O)CC[C@H](NC(=O)CCCCCCCCCCCCCCCCCCC(=O)O)C(=O)O)C(=O)N[C@@H](CC(N)=O)C(=O)N[C@@H]([C@@H](C)O)C(=O)N[C@@H](C)C(=O)N[C@@H]([C@@H](C)O)C(=O)N1)[C@@H](C)O)C(=O)N1CCC[C@H]1C(=O)N[C@@H](CO)C(=O)N[C@@H](CO)C(=O)N[C@H](C(=O)N[C@@H](CC(N)=O)C(=O)N[C@H](C(=O)NCC(=O)N1CCC[C@H]1C(=O)N[C@@H](CC(N)=O)C(=O)N[C@H](C(=O)N1CCC[C@H]1C(N)=O)[C@@H](C)O)C(C)C)[C@@H](C)O [Example 114] (H-K([γGlu-C20 diacid])CNTATCATQRLAEFLRHSSPNFGAIPSSTNVGPNTP-NH2; disulfide 2-7 (inferred); N-terminus assumed) |  | 1.1 |  | 0.5 | 0.5 | 0.9 | 0.9 | 0.9 |  | 0.9 | ≥ 200 µM | ≥ 200 µM | ≥ 200 µM | ≥ 200 µM | ≥ 200 µM | ≥ 200 µM | ≥ 200 µM | ≥ 200 µM
3 | CC[C@H](C)[C@H](NC(=O)[C@H](C)NC(=O)CNC(=O)[C@H](Cc1ccccc1)NC(=O)[C@H](CC(N)=O)NC(=O)[C@@H]1CCCN1C(=O)[C@H](CO)NC(=O)[C@H](CO)NC(=O)[C@H](Cc1c[nH]cn1)NC(=O)[C@H](CCCNC(=N)N)NC(=O)[C@H](CC(C)C)NC(=O)[C@H](Cc1ccccc1)NC(=O)[C@H](CCC(=O)O)NC(=O)[C@H](C)NC(=O)[C@H](CC(C)C)NC(=O)[C@H](CCCNC(=N)N)NC(=O)[C@H](CCC(N)=O)NC(=O)[C@@H](NC(=O)[C@H](C)NC(=O)[C@@H]1CSSC[C@H](NC(=O)[C@H](CCCCN)NC(=O)COCCOCCNC(=O)COCCOCCNC(=O)CC[C@H](NC(=O)CCCCCCCCCCCCCCCCCCC(=O)O)C(=O)O)C(=O)N[C@@H](CC(N)=O)C(=O)N[C@@H]([C@@H](C)O)C(=O)N[C@@H](C)C(=O)N[C@@H]([C@@H](C)O)C(=O)N1)[C@@H](C)O)C(=O)N1CCC[C@H]1C(=O)N[C@@H](CO)C(=O)N[C@@H](CO)C(=O)N[C@H](C(=O)N[C@@H](CC(N)=O)C(=O)N[C@H](C(=O)NCC(=O)N[C@@H](CO)C(=O)N[C@@H](CC(N)=O)C(=O)N[C@H](C(=O)N1CCC[C@H]1C(N)=O)[C@@H](C)O)C(C)C)[C@@H](C)O [Example 20] ({C20 diacid-γGlu-AEEA-AEEA}-KCNTATCATQRLAEFLRHSSPNFGAIPSSTNVGSNTP-NH2; disulfide 2-7) |  | 6.4 | 0.217 nM | 3.6 | 3.6 | 3.6 | 3.6 | 3.6 | 0.08 nM | 3.6 | ≥ 200 µM | ≥ 200 µM | ≥ 200 µM | ≥ 200 µM | ≥ 200 µM | ≥ 200 µM | ≥ 200 µM | ≥ 200 µM

Source: patent publication US9023789B2, “Amylin analogs and pharmaceutical compositions thereof” (Novo Nordisk A/S, priority 2012, dated 2015)
